System: penile erection
Experiment: Penile erection in rat
Assay type: in vivo
Conditions: male Fischer 344 rats, intraperitoneal, observed 60 minutes, mean number
Procedure: (This test was carried out according to a similar manner to that described in Jpn. J. Pharmacol., Vol. 64, 147–153 (1994))
Male Fischer 344 rats at the age of 8 weeks (n=7) were used. All rats were handled 3 minutes a day for three successive days before the tests. The rats were tested in groups of seven and various doses of the test compound were given in semi-randomized order. The test compounds were suspended in 0.5% methyl-cellulose immediately before use, and given intraperitoneally in a volume of 1 ml/kg just before the start of test. […] A mirror was situated behind each box […]. Data was expressed as a mean number.

Row | Structure (SMILES) | Penile Erection (Number/hr) (dose 0.32 mg/kg) | Penile Erection (Number/hr) (dose 0.1 mg/kg)
1 | O=C(Nc1ccc(F)cc1)N1CC=CCC1 [Example 2, 1-(4-fluorophenylcarbamoyl)-1,2,3,6-tetrahydropyridine] | 0.57 | 
2 | O=C(NC1CCc2ccccc2C1)c1ccncc1 (stereo not shown) [Example 8, 2-(Pyridin-4-ylcarbonylamino)-1,2,3,4-tetrahydro-naphthalene] |  | 0.60
3 | CC1=CCC(NC(=O)c2ccncc2)CC1 (stereo not shown) [Example 7, 1-(pyridin-4-ylcarbonylamino)-4-methylcyclohex-3-ene] |  | 0.71
4 | O=C(NC1CCc2ccccc2C1)c1ccc(F)cc1 (stereo not shown) [Example 6, 2-(4-Fluorobenzoylamino)-1,2,3,4-tetrahydronaphthalene] | 0.60 | 

— US7037942B2, “Amide compounds for the potentiation of cholinergic activity” (Astellas Pharma Inc., priority 1999, dated 2006)
